The text below walks through data of US20040096894A1, “Crystal structures of P- selectin, P- and E-selectin complexes, and uses thereof” (priority 2000, published 2004).

For test [1], the target named is T1, P-LE (lectin/EGF domains of P-selectin) (Homo sapiens, UniProt P16109).
T1 construct: The lectin-EGF (LE) domains (153 amino acids) of P-selectin (P-LE) and E-selectin (E-LE); IgG1 Fc (CH2-CH3 region) (C, cleaved yes); made in house; host or cells: CHO cells
T1 sequence (P16109 42-198): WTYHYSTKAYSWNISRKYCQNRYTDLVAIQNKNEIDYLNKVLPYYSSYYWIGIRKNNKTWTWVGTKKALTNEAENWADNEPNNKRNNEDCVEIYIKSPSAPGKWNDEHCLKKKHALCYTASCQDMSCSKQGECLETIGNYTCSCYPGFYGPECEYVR
Briefly: BIAcore: inhibition of P-LE binding to immobilized sPSGL and SGP-3 by co-injected solution-phase peptide. The settings on record: P-LE at 800 nM; solution-phase inhibitor at 20 μM. As to the method:
FIGS. 1B-1 and 1B-2: Representative BIAcore sensorgrams of solution-phase P-LE binding to immobilized PSGL-1 constructs. P-LE (at 800 nM concentration) was injected over sPSGL (FIGS. 1B-1) and SGP-3 (FIGS. 1B-2). […] P-LE binding to sPSGL and SGP-3 was inhibited by co-injection with solution-phase SGP-3 (dotted line) but not by a synthetic peptide containing no tyrosine sulfation or glycosylation (dashed line), both at 20 μM concentration. All curves reflect specific binding produced by subtracting non-specific binding from total binding.
P-LE/19ek Peptide Binding Studies. Surface plasmon resonance was performed on BIAcore 2000 and 3000 instruments at 25° C. using streptavidin-coated sensor chips (BIAcore) and HBS-P buffer (BIAcore; 10 mM HEPES (pH 7.4), 150 mM NaCl, and 0.005% polysorbate 20 (v/v)) adjusted to 1 mM each CaCl2 and MgCl2. The 19ek peptides and sPSGL, a fucosyltransferase-VII modified version of the entire dimeric extracellular domain of PSGL-1 (Croce et al., 1998), were biotinylated at Lys residues with Sulfo-NHS-LC-Biotin (Pierce). Following biotinylation, sPSGL was reacted with immobilized P-selectin in order to isolate functional material (Sako et al., 1995). […] Glycosylated P-LE and E-LE, quantitated by experimentally determined extinction coefficients (280 nm), were injected over the19ek peptide, sPSGL and control surfaces at 40 μL/min. […]
A general note: Surface plasmon resonance follows binding to a sensor surface in real time, without labels.

Test [2] concerns the target T1, P-LE (lectin/EGF domains of P-selectin). Briefly: BIAcore surface plasmon resonance: solution-phase P-LE binding to immobilized sPSGL and PSGL-1 19ek peptides. Conditions: immobilized ligand. From the text:
FIGS. 1C-1-1C-6: Binding affinity determinations of solution-phase P-LE reacted with immobilized sPSGL and purified 19ek peptides by BIAcore analysis. First row, left-to-right: sPSGL (FIGS. 1C-1), SGP-3 (FIGS. 1C-2) and SGP-2 (FIGS. 1C-3). Second row, left-to-right: SGP-1 (FIGS. 1C-4), GP-1 (FIGS. 1C-5) and SP-1 (FIGS. 1C-6). P-LE at the indicated concentrations was reacted with immobilized ligands (to determine the total binding signal) and against control […] containing no ligand (to determine non-specific binding). The equilibrium responses (Req) at each concentration of P-LE are shown. At each P-LE concentration tested, specific binding signals (squares) were determined by subtracting non-specific responses (triangles) from total binding signals (diamonds). KDs and standard deviations (shown) were determined by line-fitting of specific binding curves using BIAevaluation software (BIAcore) and are the products of three-to-ten separate experiments. KD determinations using line-fitting agreed well with values determined by linear regression analysis of Scatchard plots (not shown).
P-LE/19ek Peptide Binding Studies. […] Glycosylated P-LE and E-LE, quantitated by experimentally determined extinction coefficients (280 nm), were injected over the19ek peptide, sPSGL and control surfaces at 40 μL/min. […]

Test [3] has as its system E-selectin relative P-selectin. The settings on record: Poppe et al., 1997; cited from earlier work.

Numbered stars: 1 amine (or outer) side, 2 acyl side, 3 side chain; on linkers, the order of the positions; unused ones are H or OH. Square brackets hold non-standard residues; d marks the D form. Peptide text beside a SMILES is read from it. X1 = CC(=O)N[C@H]1[C@H](OC[C@H]2O[C@H](O[C@H](C)[C@H](N[*:1])C(=O)[*:2])[C@H](NC(C)=O)[C@@H](O[C@@H]3O[C@H](CO)[C@H](O)[C@H](O[C@]4(C(=O)O)C[C@H](O)[C@@H](NC(C)=O)[C@H]([C@H](O)[C@H](O)CO)O4)[C@H]3O)[C@H]2O)O[C@H](CO)[C@@H](O[C@@H]2O[C@H](CO)[C@H](O)[C@H](O[C@]3(C(=O)O)C[C@H](O)[C@@H](NC(C)=O)[C@H]([C@H](O)[C@H](O)CO)O3)[C@H]2O)[C@@H]1O[C@@H]1O[C@@H](C)[C@@H](O)[C@@H](O)[C@@H]1O; sY = N[C@@H](Cc1ccc(OS(=O)(=O)O)cc1)C(=O)O; pGlu = O=C1CC[C@@H](C(=O)O)N1

In the case of `CSCC[C@H](NC(=O)[C@H](CCSC)NC(=O)[C@@H]1CCCN1C(=O)[C@H](CCCNC(=N)N)NC(=O)[C@@H]1CCCN1C(=O)[C@@H]1CCCN1C(=O)[C@H](CCC(=O)O)NC(=O)[C@@H](NC(=O)[C@H](CCC(=O)O)NC(=O)[C@@H]1CCCN1C(=O)[C@H](CC(C)C)NC(=O)[C@H](Cc1ccccc1)NC(=O)[C@H](CC(=O)O)NC(=O)[C@H](Cc1ccc(OS(=O)(=O)O)cc1)NC(=O)[C@H](CC(=O)O)NC(=O)[C@H](CC(C)C)NC(=O)[C@H](Cc1ccc(OS(=O)(=O)O)cc1)NC(=O)[C@H](CCC(=O)O)NC(=O)[C@H](Cc1ccc(OS(=O)(=O)O)cc1)NC(=O)[C@H](CCC(=O)O)NC(=O)[C@@H](NC(=O)[C@H](C)NC(=O)[C@@H]1CCC(=O)N1)[C@@H](C)O)[C@@H](C)O[C@H]1O[C@H](CO[C@@H]2O[C@H](CO)[C@@H](O[C@@H]3O[C@H](CO)[C@H](O)[C@H](O[C@]4(C(=O)O)C[C@H](O)[C@@H](NC(C)=O)[C@H]([C@H](O)[C@H](O)CO)O4)[C@H]3O)[C@H](O[C@@H]3O[C@@H](C)[C@@H](O)[C@@H](O)[C@@H]3O)[C@H]2NC(C)=O)[C@H](O)[C@H](O[C@@H]2O[C@H](CO)[C@H](O)[C@H](O[C@]3(C(=O)O)C[C@H](O)[C@@H](NC(C)=O)[C@H]([C@H](O)[C@H](O)CO)O3)[C@H]2O)[C@H]1NC(C)=O)C(=O)N[C@@H](CC(=O)O)C(=O)N[C@@H](CC(=O)O)C(=O)N[C@@H](CC(=O)O)C(=O)N[C@@H](CC(=O)O)C(=O)N[C@@H](CCCCN)C(=O)O` [SGP-3] ([pGlu]ATE[sY]E[sY]LD[sY]DFLPE[X1]EPPRPMMDDDDK-OH; C-terminus assumed), in test [1], the “inhibition of P-LE binding to immobilized sPSGL and SGP-3 by co-injection” value is on record as “inhibited”. Take “sPSGL: Fucosyltransferase-VII modified version of the entire dimeric extracellular domain of PSGL-1”: the “binding affinity of P-LE in words, compared with SGP-3 or the modified species” value in test [2] is “essentially identical affinity”. Consider “sialyl Lewis^X (SLe^X, NeuNAc2,3Gal1,4[Fuc1,3] GlcNAc) tetrasaccharide”, for which the “higher SLe^X binding affinity for E-selectin relative P-selectin” value in test [3] is “approximately 10 fold”.
